Data reported in patent US10081628B2, “Apoptosis-inducing agents for the treatment of cancer and immune and autoimmune diseases” (AbbVie Inc., priority 2013, dated 2018).
Like-named read-outs stand apart in the source and are kept apart here.

What was measured:
GST-Bcl-2 = GST-Bcl-2 (Homo sapiens, UniProt P10415); test: TR-FRET Bcl-2 binding assay (F-Bak peptide probe); details: GST-Bcl-2 1 nM, F-Bak peptide probe 100 nM, Tb-anti-GST 1 nM; Wang's equation; '<' = below limit of detection
Outline: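 Competitive TR-FRET displacement of F-Bak peptide probe from GST-Bcl-2 detected with Tb-anti-GST antibody; compounds serially diluted in DMSO from 50 μM (2× starting concentration). Mixtures incubated 3 h at room temperature, read at 340 nm excitation with 520 and 495 nm emission. Ki derived by Wang's equation.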

RS4;11 cells = test: RS4;11 cell viability assay (CellTiter Glo); type: cell-based; details: 10% human serum, 48 hours
Outline: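 Cells seeded at 50,000 per well and exposed to compounds for 48 h at 37 C, 5% CO2 in the presence of 10% human serum. Viability read by CellTiter Glo; EC50 derived from percentage of viable cells versus untreated controls.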

lymphocytes = test: Lymphocyte reduction in C57BL/6 mice; type: in vivo; details: Mus musculus, ip
Experimental: An experiment was performed to evaluate the effect of Bcl-2 selective/Bcl-xL sparing compounds on immune cells and platelets, as evaluated in C57Bl/6 mice. Mice were treated four days with compounds (doses of 30 mg/kg, administered by intraperitoneal injection every day) and cell numbers were measured with a Cell Dyn hematology analyzer 24 hours after the first and last doses. Exposure of the compound (area under the curve) was calculated by using time points of 1, 6, 10 and 24 hours after the last dose.

[1] = 30 mg/kg intraperitoneal every day for four days, 24 hours after the last dose, read-out: Lymphocyte reduction % inh. day 4
[2] = 30 mg/kg intraperitoneal every day, 24 hours after the first dose, read-out: Lymphocyte reduction % inh. day 1

GST-Bcl-2, sequence (P10415 whole entry): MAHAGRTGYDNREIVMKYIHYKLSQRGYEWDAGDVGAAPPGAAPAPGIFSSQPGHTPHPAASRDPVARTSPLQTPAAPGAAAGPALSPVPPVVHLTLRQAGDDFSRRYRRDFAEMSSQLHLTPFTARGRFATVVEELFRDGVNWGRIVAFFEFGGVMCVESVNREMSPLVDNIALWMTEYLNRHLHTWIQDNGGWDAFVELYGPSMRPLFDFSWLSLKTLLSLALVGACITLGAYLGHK

SMILES: CC1(C)CCC(CN2CCN(c3ccc(C(=O)NS(=O)(=O)c4ccc(NC[C@H]5CCCOCC5)c([N+](=O)[O-])c4)c(Oc4cnc5[nH]ccc5c4)c3)CC2)=C(c2ccc(Cl)cc2)C1 [Example 20, 4-(4-{[2-(4-chlorophenyl)-4,4-dimethylcyclohex-1-en-1-yl]methyl}piperazin-1-yl)-N-[(3-nitro-4-{[(4S)-oxepan-4-ylmethyl]amino}phenyl)sulfonyl]-2-(1H-pyrrolo[2,3-b]pyridin-5-yloxy)benzamide]
- Ki (GST-Bcl-2): < 0.0001 µM
- EC50 (RS4;11 cells): 0.019 µM
- inhibition at 30 mg/kg (lymphocytes; [1]): 57%
- inhibition at 30 mg/kg (lymphocytes; [2]): 20%

SMILES: CC1(C)CCC(CN2CCN(c3ccc(C(=O)NS(=O)(=O)c4ccc(NCC5(C)CCOCC5)c([N+](=O)[O-])c4)c(Oc4cnc5[nH]ccc5c4)c3)CC2)=C(c2ccc(Cl)cc2)C1 [Example 21, 4-(4-{[2-(4-chlorophenyl)-4,4-dimethylcyclohex-1-en-1-yl]methyl}piperazin-1-yl)-N-[(4-{[(4-methyltetrahydro-2H-pyran-4-yl)methyl]amino}-3-nitrophenyl)sulfonyl]-2-(1H-pyrrolo[2,3-b]pyridin-5-yloxy)benzamide]
- Ki (GST-Bcl-2): < 0.0001 µM
- EC50 (RS4;11 cells): 0.019 µM
- inhibition at 30 mg/kg (lymphocytes; [1]): 61%
- inhibition at 30 mg/kg (lymphocytes; [2]): 61%

SMILES: CC1(C)CCC(CN2CCN(c3ccc(C(=O)NS(=O)(=O)c4ccc(NCC5CCSCC5)c([N+](=O)[O-])c4)c(Oc4cnc5[nH]ccc5c4)c3)CC2)=C(c2ccc(Cl)cc2)C1 [Example 22, 4-(4-{[2-(4-chlorophenyl)-4,4-dimethylcyclohex-1-en-1-yl]methyl}piperazin-1-yl)-N-({3-nitro-4-[(tetrahydro-2H-thiopyran-4-ylmethyl)amino]phenyl}sulfonyl)-2-(1H-pyrrolo[2,3-b]pyridin-5-yloxy)benzamide]
- Ki (GST-Bcl-2): < 0.0001 µM
- EC50 (RS4;11 cells): 0.028 µM
- inhibition at 30 mg/kg (lymphocytes; [1]): 44%
- inhibition at 30 mg/kg (lymphocytes; [2]): 40%

SMILES: CC1(C)CCC(CN2CCN(c3ccc(C(=O)NS(=O)(=O)c4ccc(NCC5COC5)c([N+](=O)[O-])c4)c(Oc4cnc5[nH]ccc5c4)c3)CC2)=C(c2ccc(Cl)cc2)C1 [Example 23, 4-(4-{[2-(4-chlorophenyl)-4,4-dimethylcyclohex-1-en-1-yl]methyl}piperazin-1-yl)-N-({3-nitro-4-[(oxetan-3-ylmethyl)amino]phenyl}sulfonyl)-2-(1H-pyrrolo[2,3-b]pyridin-5-yloxy)benzamide]
- Ki (GST-Bcl-2): < 0.0001 µM
- EC50 (RS4;11 cells): 0.023 µM
- inhibition at 30 mg/kg (lymphocytes; [1]): 15%
- inhibition at 30 mg/kg (lymphocytes; [2]): 37%

SMILES: C[C@@H]1CO[C@H](CNc2ccc(S(=O)(=O)NC(=O)c3ccc(N4CCN(CC5=C(c6ccc(Cl)cc6)CC(C)(C)CC5)CC4)cc3Oc3cnc4[nH]ccc4c3)cc2[N+](=O)[O-])CO1 [Example 24, 4-(4-{[2-(4-chlorophenyl)-4,4-dimethylcyclohex-1-en-1-yl]methyl}piperazin-1-yl)-N-{[4-({[(2R,5R)-5-methyl-1,4-dioxan-2-yl]methyl}amino)-3-nitrophenyl]sulfonyl}-2-(1H-pyrrolo[2,3-b]pyridin-5-yloxy)benzamide]
- Ki (GST-Bcl-2): < 0.0001 µM
- EC50 (RS4;11 cells): 0.014 µM
- inhibition at 30 mg/kg (lymphocytes; [1]): 58%
- inhibition at 30 mg/kg (lymphocytes; [2]): 48%

SMILES: CC1(C)CCC(CN2CCN(c3ccc(C(=O)NS(=O)(=O)c4ccc(NCC5(O)COCCOC5)c([N+](=O)[O-])c4)c(Oc4cnc5[nH]ccc5c4)c3)CC2)=C(c2ccc(Cl)cc2)C1 [Example 25, 4-(4-{[2-(4-chlorophenyl)-4,4-dimethylcyclohex-1-en-1-yl]methyl}piperazin-1-yl)-N-[(4-{[(6-hydroxy-1,4-dioxepan-6-yl)methyl]amino}-3-nitrophenyl)sulfonyl]-2-(1H-pyrrolo[2,3-b]pyridin-5-yloxy)benzamide]
- Ki (GST-Bcl-2): < 0.0001 µM
- EC50 (RS4;11 cells): 0.036 µM
- inhibition at 30 mg/kg (lymphocytes; [1]): 15%
- inhibition at 30 mg/kg (lymphocytes; [2]): 29%
